From patent US10654854B2 (INTRA-CELLULAR THERAPIES, INC., priority 2016, dated 2020)
Counter-ions that a name gives are not always drawn.

Assays:
[1] = hygroscopicity and stability of salt forms (salt screen); format: physicochemical; settings: salt form
Experimental: In an effort to find new salts and polymorphs of ITI-007, an extensive salt screen was undertaken. […] Eventually, a toluenesulfonic acid addition salt (tosylate) was prepared, as described in WO 2009/114181, but no other stable salts were found. Finally, a major salt screen was carried out, wherein the free base compound was studied in different solvent systems and under different conditions, and then systematically screened using a selection of over 100 acids under different conditions and with different solvent, co-solvent and anti-solvent systems, to identify possible salt forms. Following extensive screening and experimentation, the following novel salts were discovered, characterized, and found to be reproducible and stable: oxalate, 4-aminosalicylate, and cyclamate.
(§1) Solubility of free base in various solvents is evaluated, and based on the results of the solubility range, suitable solvents are selected for the salt screen. The salt screen is divided into seven separate screens, using 90 different counter ions, six different solvents, and including four different crystallization methods, slurry experiments, cooling crystallization, evaporation and precipitation experiments. The counterions are selected based upon availability and potential suitability to form pharmaceutically acceptable acid addition salts. They include the class I, II and III acids identified in Stahl P. H., Wermuch C. G. (editors), Handbook of Pharmaceutical Salts, IUPAC (2008).

[2] = Dynamic Vapour Sorption (DVS); format: physicochemical; settings: for DVS total mass uptake: at 95 RH %; for hygroscopicity (assessment from DVS): from total mass uptake at 95 RH %; for DVS Hygroscopicity (%): scale-up synthesis batch
Experimental: Dynamic Vapour Sorption (DVS): The Dynamic Vapour Sorption studies are performed using a Surface Measurement Systems Ltd. DVS-1 No Video, equipment #2126. The sample is loaded into a balance pan, typically 20-30 mg, and equilibrated at 0% RH. After the material was dried, the RH is increased with 10% per step for 1 hour per increment, ending at 95% RH. After completion of the sorption cycle, the sample was dried using the same method. The software used for data collection is DVSWin v3.01 No Video. Data analysis is performed using DVS Standard Analysis Suite v6.3.0 (Standard).

[3] = target: H1 histaminergic (Homo sapiens, UniProt P35367); settings: cited from earlier work
Sequence of H1 histaminergic (P35367 whole entry): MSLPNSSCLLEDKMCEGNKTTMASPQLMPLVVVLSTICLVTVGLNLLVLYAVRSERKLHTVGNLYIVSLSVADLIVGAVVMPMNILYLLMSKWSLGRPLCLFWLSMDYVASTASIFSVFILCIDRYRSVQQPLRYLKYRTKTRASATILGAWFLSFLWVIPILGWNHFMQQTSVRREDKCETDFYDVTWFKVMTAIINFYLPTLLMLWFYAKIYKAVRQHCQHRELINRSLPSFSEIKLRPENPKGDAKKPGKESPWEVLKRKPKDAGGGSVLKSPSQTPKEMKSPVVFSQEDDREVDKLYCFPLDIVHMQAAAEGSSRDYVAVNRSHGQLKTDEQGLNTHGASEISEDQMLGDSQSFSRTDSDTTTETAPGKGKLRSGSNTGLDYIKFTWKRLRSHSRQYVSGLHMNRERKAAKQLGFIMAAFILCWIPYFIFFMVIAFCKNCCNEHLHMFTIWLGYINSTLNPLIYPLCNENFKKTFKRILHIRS

[4] = test system: muscarinic; settings: cited from earlier work
[5] = solubility of free base in water and organic solvents; format: physicochemical; settings: free base form; in water and in many organic solvents
Experimental: as §1

[6] = target: T1, 5-HT2C (Homo sapiens, UniProt P28335); settings: cited from earlier work
T1 sequence (P28335 33-458): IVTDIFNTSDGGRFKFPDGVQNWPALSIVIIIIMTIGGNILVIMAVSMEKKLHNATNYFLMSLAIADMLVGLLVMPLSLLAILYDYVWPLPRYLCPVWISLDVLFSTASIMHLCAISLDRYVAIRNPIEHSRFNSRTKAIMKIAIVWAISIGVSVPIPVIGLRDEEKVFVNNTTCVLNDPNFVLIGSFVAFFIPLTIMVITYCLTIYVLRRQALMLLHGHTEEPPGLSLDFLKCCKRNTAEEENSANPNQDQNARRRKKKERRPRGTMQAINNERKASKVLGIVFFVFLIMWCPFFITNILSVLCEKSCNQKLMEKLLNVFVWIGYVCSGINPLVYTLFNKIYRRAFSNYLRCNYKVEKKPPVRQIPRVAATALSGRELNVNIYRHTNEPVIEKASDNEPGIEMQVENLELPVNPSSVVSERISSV

Row | stability [1] | DVS total mass uptake [2] | hygroscopicity (assessment from DVS) [2] | DVS Hygroscopicity (%) [2] | DVS Hygroscopicity (%) ([2]; listed as FP-212 cyclamate salt) | solubility [5] | Compound | binding to receptors associated with cognitive and metabolic side effects [3] | binding to receptors associated with cognitive and metabolic side effects [4] | binding to receptors associated with cognitive and metabolic side effects [6]
1 | stable | 5% | moderately hygroscopic | 5% |  |  | CN1CCN2c3c(cccc31)[C@@H]1CN(CCCC(=O)c3ccc(F)cc3)CC[C@@H]12 [4-aminosalicylate salt, 1-(4-fluoro-phenyl)-4-((6bR,10aS)-3-methyl-2,3,6b,9,10,10a-hexahydro-1H,7H-pyrido[3′,4′:4,5]pyrrolo[1,2,3-de]quinoxalin-8-yl)-butan-1-one] |  |  | 
2 | stable | 8% | somewhat hygroscopic |  | 8% |  | CN1CCN2c3c(cccc31)[C@@H]1CN(CCCC(=O)c3ccc(F)cc3)CC[C@@H]12 [cyclamate salt, 1-(4-fluoro-phenyl)-4-((6bR,10aS)-3-methyl-2,3,6b,9,10,10a-hexahydro-1H,7H-pyrido[3′,4′:4,5]pyrrolo[1,2,3-de]quinoxalin-8-yl)-butan-1-one] |  |  | 
3 | stable | 5% | moderately hygroscopic | 5% |  |  | CN1CCN2c3c(cccc31)[C@@H]1CN(CCCC(=O)c3ccc(F)cc3)CC[C@@H]12 [oxalate salt, 1-(4-fluoro-phenyl)-4-((6bR,10aS)-3-methyl-2,3,6b,9,10,10a-hexahydro-1H,7H-pyrido[3′,4′:4,5]pyrrolo[1,2,3-de]quinoxalin-8-yl)-butan-1-one] |  |  | 
4 |  |  |  |  |  | poor solubility | CN1CCN2c3c(cccc31)[C@@H]1CN(CCCC(=O)c3ccc(F)cc3)CC[C@@H]12 [ITI-007, 1-(4-fluoro-phenyl)-4-((6bR,10aS)-3-methyl-2,3,6b,9,10,10a-hexahydro-1H,7H-pyrido[3′,4′:4,5]pyrrolo[1,2,3-de]quinoxalin-8-yl)-butan-1-one] | negligible binding | negligible binding | negligible binding
